The values that follow come from patent US8168792B2, “Heterocyclic antiviral compounds” (Roche Palo Alto LLC, priority 2009, dated 2012).

pIC50: −log10 of the molar value. Some results are limits rather than exact numbers.

In data set [1] the target is T1, HCV polymerase (NS5B570n-Con1) (Hepatitis C virus genotype 1b, UniProt Q9WMX2).
T1 construct: contains a 21 amino acid deletion at the C-terminus relative to the full-length HCV polymerase; 6-histidine (N); made in house; host or cells: E. coli BL21(DE) pLysS, plasmid pET17b
As to the kind of experiment: HCV NS5B RNA polymerase activity (incorporation of radiolabeled nucleotide into RNA). Format: biochemical, HCV Con1 strain. On the procedure: The enzymatic activity of HCV polymerase (NS5B570n-Con1) was measured as the incorporation of radiolabeled nucleotide monophosphates into acid insoluble RNA products. Unincorporated radio labeled substrate was removed by filtration and scintillant was added to the washed and dried filter plate containing radio labeled RNA product. The amount of RNA product generated by NS5B570-Con1 at the end of the reaction was directly proportional to the amount of light emitted by the scintillant.
The N-terminal 6-histidine tagged HCV polymerase, derived from HCV Con1 strain, genotype 1b (NS5B570n-Con1) contains a 21 amino acid deletion at the C-terminus relative to the full-length HCV polymerase and was purified from E. coli strain BL21(DE) pLysS. The construct, containing the coding sequence of HCV NS5B Con1 (GenBank accession number AJ242654) was inserted into the plasmid construct pET17b, downstream of a T7 promoter expression cassette and transformed into E. coli. A single colony was grown overnight as a starter culture and later used inoculate 10 L of LB media supplemented with 100 μg/mL ampicillin at 37° C. Protein expression was induced by the addition of 0.25 mM isopropyl-β-D-thiogalactopyranoside (IPTG) when optical density at […] of the culture was between 0.6 and 0.8 and cells were harvested after 16 to 18 h at 30° C. NS5B570n-Con1 was purified to homogeneity using a three-step protocol including subsequent column chromatography on Ni-NTA, SP-Sepharose HP and Superdex 75 resins.
Each 50 μl enzymatic reaction contained 20 nM RNA template derived from the complementary sequence of the Internal Ribosome Entry Site (cIRES), 20 nM NS5B570n-Con1 enzyme, 0.5 μCi of tritiated UTP (Perkin Elmer catalog no. TRK-412; specific activity: 30 to 60 Ci/mmol; stock solution concentration from 7.5×10^-5 M to 20.6×10^-6 M), 1 μM each ATP, CTP, and GTP, 40 mM Tris-HCl pH 8.0, 40 mM NaCl, 4 mM DTT (dithiothreitol), 4 mM MgCl2, and 5 μl of compound serial diluted in DMSO. Reaction mixtures were assembled in 96-well filter plates (cat #MADVN0B, Millipore Co.) and incubated for 2 h at 30° C. Reactions were stopped by addition of 10% final (v/v) trichloroacetic acid and incubated for 40 min at 4° C. Reactions were filtered, washed with 8 reaction volumes of 10% (v/v) trichloroacetic acetic acid, 4 reaction volumes of 70% (v/v) ethanol, air dried, and 25 μl of scintillant (Microscint 20, Perkin-Elmer) was added to each reaction well.
The amount of light emitted from the scintillant was converted to counts per minute (CPM) on a Topcount® plate reader (Perkin-Elmer, Energy Range: Low, Efficiency Mode Normal, Count Time: 1 min, Background Subtract: none, Cross talk reduction: Off).
Data was analyzed in Excel® (Microsoft) and ActivityBase® (Idbs®). The reaction in the absence of enzyme was used to determine the background signal, which was subtracted from the enzymatic reactions. Positive control reactions were performed in the absence of compound, from which the background corrected activity was set as 100% polymerase activity. All data was expressed as a percentage of the positive control. The compound concentration at which the enzyme-catalyzed rate of RNA synthesis was reduced by 50% (IC50) was calculated by fitting
[formula] equation (i) to the data where “Y” corresponds to the relative enzyme activity (in %), “% Min” is the residual relative activity at saturating compound concentration, “% Max” is the relative maximum enzymatic activity, “X” corresponds to the compound concentration, and “S” is the Hill coefficient (or slope).

Data set [2] has as its system HCV replicon (genotype 1b, cell line 2209-23). As to the kind of experiment: HCV replicon assay (Renilla luciferase reporter). Format: cell-based, HCV genotype 1b. The conditions noted are these: Hepatitis C virus, 72 h; three days incubation, luciferase readout. A general note: Replicon systems follow genome replication, usually without infectious particles.
A short description of data set [3]: in vitro. The conditions noted are these: human.
Data set [4] relates to HCV. The note with it: monotherapy / sole treatment; cited from earlier work.

As to `CC(C)(C)c1cc(-c2ccc[nH]c2=O)c2oc(=O)ccc2c1` [Compound I-1, 3-(6-tert-Butyl-2-oxo-2H-chromen-8-yl)-1H-pyridin-2-one], the melting point (usually the temperature, or range, at which the solid turns liquid) was more than 300 °C. Moreover, the pIC50 (commonly the IC50 on a negative log10 scale, so that one unit is a factor of ten) in data set [1] is 5.82.
In the same order, the values of `CC(C)(C)c1cc(-c2ccc[nH]c2=O)c2[nH]c(=O)ccc2c1` [Compound I-2] are more than 300 °C and 6.48.
The compound `CC(C)(C)c1cc(-c2ccc[nH]c2=O)c2oc(=O)c(-c3ccc(N)cc3)cc2c1` [Compound I-3] showed a melting point of more than 300 °C. Moreover, in data set [1], the pIC50 was 7.47.
In the same order, the values of `CC(C)(C)c1cc(-c2ccc[nH]c2=O)c2[nH]c(=O)c(-c3ccccc3)cc2c1` [Compound I-4] are 200 to 202 °C and 7.04.
For `CC(C)(C)c1cc(-c2ccc[nH]c2=O)c2oc(=O)c(-c3ccc(NS(C)(=O)=O)cc3)cc2c1` [Compound I-5, N-{4-[6-tert-Butyl-2-oxo-8-(2-oxo-1,2-dihydro-pyridin-3-yl)-2H-chromen-3-yl]-phenyl}-methanesulfonamide], the melting point was in the range of 225 to 227 °C. In addition, the pIC50 in data set [1] was 8.30. Further, in data set [2], the pIC50 was 8.00. In data set [3], this compound gave a CC50 at 3 days of 95100 nM.
Compound `Cn1c(=O)c(-c2ccccc2)cc2cc(C(C)(C)C)cc(-c3ccc[nH]c3=O)c21` [Compound I-6] gave a melting point of 290 to 292 °C. The compound further gave a pIC50 in data set [1] of 6.34.
`Cn1c(=O)c(-c2ccc(O)cc2)cc2cc(C(C)(C)C)cc(-c3ccc[nH]c3=O)c21` [Compound I-7] yielded a melting point of more than 300 °C. Also, the pIC50 in data set [1] is 6.05.
Take `Cn1c(=O)c(-c2ccc(NS(C)(=O)=O)cc2)cc2cc(C(C)(C)C)cc(-c3ccc[nH]c3=O)c21` [Compound I-8, N-{4-[6-tert-Butyl-1-methyl-2-oxo-8-(2-oxo-1,2-dihydro-pyridin-3-yl)-1,2-dihydro-quinolin-3-yl]-phenyl}-methanesulfonamide]: the melting point was more than 300 °C. In data set [1], the pIC50 was 8.22.
`CC(C)(C)c1cc(-c2ccc[nH]c2=O)c2[nH]c(=O)c(-c3ccc(NS(C)(=O)=O)cc3)cc2c1` [Compound I-9] displayed a melting point of more than 300 °C. Besides, the pIC50 in data set [1] is 8.30.
`CC(C)(C)c1cc(-c2ccc[nH]c2=O)c2[nH]c(=O)c(-c3cccc(NS(C)(=O)=O)c3)cc2c1` [Compound I-10, N-{3-[6-tert-Butyl-2-oxo-8-(2-oxo-1,2-dihydro-pyridin-3-yl)-1,2-dihydro-quinolin-3-yl]-phenyl}-methanesulfonamide]: the melting point lay within 233 to 235 °C. For the same compound, in data set [1], the pIC50 was 6.27.
In the same order, the values of `CC(C)(C)c1cc(-c2ccc[nH]c2=O)c2[nH]c(=O)c(-c3ccc(S(N)(=O)=O)cc3)cc2c1` [Compound I-11] are 250 to 252 °C and 7.34.
Regarding `Cn1c(=O)c(-c2ccc(S(N)(=O)=O)cc2)cc2cc(C(C)(C)C)cc(-c3ccc[nH]c3=O)c21` [Compound I-12], the melting point was more than 300 °C. This compound showed a pIC50 in data set [1] of 5.63.
`CC(C)(C)c1cc(-c2ccc[nH]c2=O)c2[nH]c(=O)c(-c3cccc(C(N)=O)c3)cc2c1` [Compound I-13] had a melting point of 255 to 257 °C. This compound also showed a pIC50 in data set [1] of 7.44.
For `CC(C)(C)c1cc(-c2ccc[nH]c2=O)c2c(=O)[nH]c(-c3ccc(NS(C)(=O)=O)cc3)cc2c1` [Compound I-14, N-{4-[6-tert-Butyl-1-oxo-8-(2-oxo-1,2-dihydro-pyridin-3-yl)-1,2-dihydro-isoquinolin-3-yl]-phenyl}-methanesulfonamide], the melting point is more than 300 °C. The compound further had a pIC50 in data set [1] of 7.80.
As to `CC(C)(C)c1cc(-c2ccc[nH]c2=O)c2c(=O)oc(-c3ccc(NS(C)(=O)=O)cc3)cc2c1` [Compound I-15, N-{4-[6-tert-Butyl-1-oxo-8-(2-oxo-1,2-dihydro-pyridin-3-yl)-1H-isochromen-3-yl]-phenyl}methanesulfonamide], the pIC50 in data set [1] is 8.10.
As to `CC(C)(C)c1cc2c(c(-c3ccc[nH]c3=O)c1)OC(O)C(c1ccc(NS(C)(=O)=O)cc1)C2` (stereo not shown) [Compound I-18, N-{4-[6-tert-Butyl-2-hydroxy-8-(2-oxo-1,2-dihydro-pyridin-3-yl)-chroman-3-yl]-phenyl}-methanesulfonamide], the melting point lay within 228 to 230 °C. This compound had a pIC50 in data set [1] of 8.15.
Consider `NC(=O)c1ncn([C@@H]2O[C@H](CO)[C@@H](O)[C@H]2O)n1` [ribavirin, 1-((2R,3R,4S,5R)-3,4-Dihydroxy-5-hydroxymethyl-tetrahydro-furan-2-yl)-1H-[1,2,4]triazole-3-carboxylic acid amide], for which, in data set [4], the “serum levels of HCV-RNA” value is given as “does not lower serum levels of HCV-RNA”.
